Experimental data as given in BindingDB's records for doi:10.1021/jm990341r (University of Wisconsin-Milwaukee, 2000).

How the values were obtained:
[1] = target: T1, Gamma-aminobutyric acid receptor subunit alpha-3/beta-3/gamma-2 (Homo sapiens, UniProt P34903+P18507+P28472); experiment: Binding affinity for human recombinant gamma-aminobutyric-acid (GABA) A receptor alpha-3-beta-3-gamma-2
T1 sequence (P34903 whole entry): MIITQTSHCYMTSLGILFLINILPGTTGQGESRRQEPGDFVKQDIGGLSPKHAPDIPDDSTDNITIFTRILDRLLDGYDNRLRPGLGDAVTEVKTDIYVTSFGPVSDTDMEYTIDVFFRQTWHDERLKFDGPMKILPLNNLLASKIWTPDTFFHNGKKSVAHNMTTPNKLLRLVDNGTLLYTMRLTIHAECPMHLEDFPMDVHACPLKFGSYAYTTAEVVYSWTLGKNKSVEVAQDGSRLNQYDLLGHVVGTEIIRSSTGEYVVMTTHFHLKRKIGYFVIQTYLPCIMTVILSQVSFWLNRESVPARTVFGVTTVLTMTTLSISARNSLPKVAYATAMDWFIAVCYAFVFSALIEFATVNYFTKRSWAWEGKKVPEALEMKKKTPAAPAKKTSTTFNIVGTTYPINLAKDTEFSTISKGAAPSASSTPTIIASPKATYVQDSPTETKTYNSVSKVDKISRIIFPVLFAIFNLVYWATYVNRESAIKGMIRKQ
T1 sequence (P18507 whole entry): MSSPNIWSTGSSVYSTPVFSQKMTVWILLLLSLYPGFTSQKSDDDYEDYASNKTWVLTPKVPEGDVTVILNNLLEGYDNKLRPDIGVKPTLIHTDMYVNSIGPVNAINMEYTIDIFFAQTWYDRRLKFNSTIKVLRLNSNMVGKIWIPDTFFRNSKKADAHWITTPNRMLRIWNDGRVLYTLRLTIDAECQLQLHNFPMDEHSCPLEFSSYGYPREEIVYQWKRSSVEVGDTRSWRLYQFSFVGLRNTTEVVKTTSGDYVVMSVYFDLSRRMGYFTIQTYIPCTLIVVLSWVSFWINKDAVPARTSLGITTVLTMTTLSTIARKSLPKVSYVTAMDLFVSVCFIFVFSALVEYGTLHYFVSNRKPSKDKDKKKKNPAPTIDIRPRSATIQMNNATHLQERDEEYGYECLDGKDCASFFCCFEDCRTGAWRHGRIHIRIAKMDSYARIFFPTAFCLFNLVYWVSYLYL
T1 sequence (P28472 whole entry): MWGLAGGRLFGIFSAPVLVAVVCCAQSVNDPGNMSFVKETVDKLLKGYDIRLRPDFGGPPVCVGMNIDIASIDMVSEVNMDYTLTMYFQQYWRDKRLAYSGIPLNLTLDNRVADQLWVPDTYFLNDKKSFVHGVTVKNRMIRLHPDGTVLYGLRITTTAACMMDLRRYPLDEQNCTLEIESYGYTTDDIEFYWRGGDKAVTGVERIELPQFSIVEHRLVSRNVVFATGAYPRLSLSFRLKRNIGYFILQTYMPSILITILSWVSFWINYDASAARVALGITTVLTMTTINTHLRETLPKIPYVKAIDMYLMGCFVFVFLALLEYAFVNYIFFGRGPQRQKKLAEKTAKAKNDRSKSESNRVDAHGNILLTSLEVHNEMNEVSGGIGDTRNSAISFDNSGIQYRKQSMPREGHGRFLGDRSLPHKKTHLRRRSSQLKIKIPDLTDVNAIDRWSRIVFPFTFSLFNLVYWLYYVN

[2] = target: T2, GABA-A receptor; alpha-5/beta-3/gamma-2 (Homo sapiens, UniProt P31644+P18507+P28472); experiment: Binding affinity for human recombinant gamma-aminobutyric-acid (GABA) A receptor alpha-5-beta-3-gamma-2
T2 sequence (P31644 whole entry): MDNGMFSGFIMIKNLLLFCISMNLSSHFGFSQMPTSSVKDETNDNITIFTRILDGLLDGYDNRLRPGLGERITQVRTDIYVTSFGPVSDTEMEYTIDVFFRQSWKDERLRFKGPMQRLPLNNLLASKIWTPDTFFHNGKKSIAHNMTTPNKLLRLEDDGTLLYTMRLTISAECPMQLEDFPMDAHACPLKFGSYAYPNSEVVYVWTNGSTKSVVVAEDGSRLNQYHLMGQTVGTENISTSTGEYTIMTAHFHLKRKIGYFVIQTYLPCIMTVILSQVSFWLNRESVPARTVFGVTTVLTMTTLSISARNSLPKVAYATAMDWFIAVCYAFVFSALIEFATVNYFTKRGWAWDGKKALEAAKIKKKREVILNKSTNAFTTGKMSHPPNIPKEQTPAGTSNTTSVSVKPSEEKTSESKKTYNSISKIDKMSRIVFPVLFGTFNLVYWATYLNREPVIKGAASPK
T2 sequence (P18507 whole entry): T1 sequence (P18507 whole entry)
T2 sequence (P28472 whole entry): T1 sequence (P28472 whole entry)

[3] = target: Gamma-aminobutyric acid receptor subunit alpha-6/beta-3/gamma-2 (Homo sapiens, UniProt Q16445+P18507+P28472); experiment: Binding affinity for human recombinant gamma-aminobutyric-acid (GABA) A receptor alpha-6-beta-3-gamma-2
Sequence of Gamma-aminobutyric acid receptor subunit alpha-6/beta-3/gamma-2 (Q16445 whole entry, one chain of several): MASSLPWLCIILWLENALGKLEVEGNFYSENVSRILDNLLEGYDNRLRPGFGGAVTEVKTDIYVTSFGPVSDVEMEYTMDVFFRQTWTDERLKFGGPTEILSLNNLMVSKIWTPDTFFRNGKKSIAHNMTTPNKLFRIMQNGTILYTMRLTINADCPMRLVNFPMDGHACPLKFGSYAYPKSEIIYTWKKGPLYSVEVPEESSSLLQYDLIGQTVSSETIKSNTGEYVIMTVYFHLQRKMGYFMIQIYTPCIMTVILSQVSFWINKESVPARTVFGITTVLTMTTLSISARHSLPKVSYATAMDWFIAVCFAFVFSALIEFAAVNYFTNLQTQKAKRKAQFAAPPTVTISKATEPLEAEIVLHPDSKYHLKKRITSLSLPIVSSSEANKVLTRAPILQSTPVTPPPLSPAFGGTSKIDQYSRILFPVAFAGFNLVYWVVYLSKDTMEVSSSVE

[4] = target: T3, GABA-A receptor; alpha-2/beta-3/gamma-2 (Homo sapiens, UniProt P47869+P18507+P28472); experiment: Binding affinity to human recombinant gamma-aminobutyric-acid (GABA) A receptor alpha-2-beta-3-gamma-2
T3 sequence (P47869 whole entry): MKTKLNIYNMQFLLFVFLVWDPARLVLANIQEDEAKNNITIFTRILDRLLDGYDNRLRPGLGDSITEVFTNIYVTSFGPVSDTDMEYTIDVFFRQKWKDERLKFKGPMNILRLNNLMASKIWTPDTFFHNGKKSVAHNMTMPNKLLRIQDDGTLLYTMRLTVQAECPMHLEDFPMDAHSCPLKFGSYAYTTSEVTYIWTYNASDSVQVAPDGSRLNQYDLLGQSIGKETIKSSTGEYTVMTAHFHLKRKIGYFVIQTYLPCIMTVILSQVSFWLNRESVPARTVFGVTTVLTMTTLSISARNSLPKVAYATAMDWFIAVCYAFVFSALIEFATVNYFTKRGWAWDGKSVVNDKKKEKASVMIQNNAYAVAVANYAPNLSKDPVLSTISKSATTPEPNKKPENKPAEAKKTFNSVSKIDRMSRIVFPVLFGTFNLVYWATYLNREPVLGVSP
T3 sequence (P18507 whole entry): T1 sequence (P18507 whole entry)
T3 sequence (P28472 whole entry): T1 sequence (P28472 whole entry)

[5] = target: T4, Gamma-aminobutyric acid receptor subunit alpha-1/beta-3/gamma-2 (Homo sapiens, UniProt P14867+P18507+P28472); experiment: Binding affinity for human recombinant gamma-aminobutyric-acid (GABA) A receptor alpha-1-beta-3-gamma-2
T4 sequence (P14867 whole entry): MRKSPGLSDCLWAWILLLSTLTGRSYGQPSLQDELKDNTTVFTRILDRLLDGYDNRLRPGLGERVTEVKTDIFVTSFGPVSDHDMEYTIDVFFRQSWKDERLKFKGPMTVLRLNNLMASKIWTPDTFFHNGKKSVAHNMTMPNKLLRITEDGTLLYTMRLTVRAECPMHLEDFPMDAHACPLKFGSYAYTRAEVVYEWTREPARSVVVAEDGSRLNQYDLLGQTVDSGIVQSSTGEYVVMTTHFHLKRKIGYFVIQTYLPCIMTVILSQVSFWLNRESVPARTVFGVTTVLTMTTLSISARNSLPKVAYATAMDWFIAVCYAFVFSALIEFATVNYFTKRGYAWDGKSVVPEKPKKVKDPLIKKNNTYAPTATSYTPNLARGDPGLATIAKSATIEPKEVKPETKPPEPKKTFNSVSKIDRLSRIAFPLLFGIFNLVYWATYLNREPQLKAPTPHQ
T4 sequence (P18507 whole entry): T1 sequence (P18507 whole entry)
T4 sequence (P28472 whole entry): T1 sequence (P28472 whole entry)

SMILES	Ki [1] [nM]	Ki [3] [nM]	Ki [4] [nM]	Ki [2] [nM]	Ki [5] [nM]
CCOC(=O)c1[nH]cc2nc3ccccc3c-2c1COC	4.9	–	–	10	–
CCOC(=O)c1[nH]cc2nc3ccc(OCc4ccccc4)cc3c-2c1COC [6-Benzyloxy-4-methoxymethyl-9H-beta-carboline-3-carboxylic acid ethyl ester]	6	–	–	–	–
COCc1c(C(=O)OC(C)C)[nH]cc2nc3ccc(OCc4ccccc4)cc3c1-2 [6-Benzyloxy-4-methoxymethyl-9H-beta-carboline-3-carboxylic acid isopropyl ester(Abecarnil)]	–	> 1000	–	–	12

Continued, in another order:

Ki [1] [nM]	Ki [3] [nM]	Ki [4] [nM]	SMILES	Ki [2] [nM]	Ki [5] [nM]
24	> 10000	12	Clc1ccc2c(c1)[nH]c1c3c4ccccc4nc-3c[nH]c12	–	–
–	> 10000	12	COc1ccc2c(c1)[nH]c1c3c4ccccc4nc-3c[nH]c12	–	–
16	> 10000	12	c1ccc2c(c1)[nH]c1c[nH]c3c4cccnc4nc-3c12 [7,12-Dihydro-1,5,7,12-tetraaza-indeno[1,2-a]fluorene]	–	–
31	> 10000	24	c1ccc2c(c1)[nH]c1c[nH]c3c4ccncc4nc-3c12 [7,12-Dihydro-2,5,7,12-tetraaza-indeno[1,2-a]fluorene]	–	–
